tested on: tetrabenazine-induced ptosis; assay: Test for influence on tetrabenazine-induced ptosis in mice; assay type: in vivo, mice (male, SPF-71, KF:NMRI); details: Mus musculus, po, 0.5 h, p.o., tetrabenazine 40 mg/kg i.p. 30 minutes after test substance, ptosis scored 30 minutes later, 50% of control ptosis, 95% confidence limit in parentheses
Procedure: Test for influence on tetrabenazine-induced ptosis
Male mice (SPF-71, KF:NMRI) weighing 18-22 g were allotted at random to treatment groups of 6 animals. The test substances were suspended in 1% strength methylhydroxyethylcellulose (MH)/water and administered orally at 10 ml/kg of body weight. A control group was given the solvent (1% strength MH), and the standard group was given 10 mg/kg p.o. of nomifensine (in 1% strength MH). The tetrabenazine solution used was prepared from methanesulfonate (.congruent.76.8% of base), and an amount corresponding to 40 mg/kg of tetrabenazine base was administered intraperitoneally 30 minutes after the test substances. The ptosis was assessed according to the following scale 30 minutes after administration of tetrabenazine: […]
The ptosis scores were cumulated and the result of the groups related to the maximum score achievable (6×.varies.=100%). By means of linear regression, the ED50 (mg/kg) was determined as the dose at which the degree of ptosis is 50% of the value determined in the control group.

SMILES	ED50 [mg/kg]
C=CCC1(C(O)C(c2cccc(Cl)c2)n2ccnc2)CCCCC1 (centres unmarked) [Example 1, 1-(1-Allyl-1-cyclohexyl)-2-(3-chlorophenyl)-2-(1-imidazolyl)-ethanol]	3.9
C=CCC(C)(C)C(O)C(c1cccc(Cl)c1)n1ccnc1 (centres unmarked) [Example 2, 1-(3Chlorophenyl)-3,3-dimethyl-1-(1-imidazolyl)-5-hexen-2-ol]	2
C=CCC(C)(C)C(O)C(c1ccc(-c2ccccc2)cc1)n1ccnc1 (centres unmarked) [Example 13]	1.3
CCCC(C)(C)C(O)C(c1ccc(-c2ccccc2)cc1)n1ccnc1 (centres unmarked) [Example 26, 1-(4-Diphenyl)-3,3-dimethyl-1-(1-imidazolyl)-2-hexanol]	1.2
CN1Cc2c(N)cccc2C(c2ccccc2)C1 (centres unmarked) [nomifensine, reference compound]	1.2

From patent US4999352A, “1-(1-aryl-2-hydroxyethyl)-imidazoles and salts thereof, medicaments containing these compounds, and the use thereof” (Hoechst Aktiengesellschaft, priority 1987, dated 1991)
